Here are results for two compounds from publication PMC6264390, “Design, Synthesis and Structure-activity Studies of Rhodanine Derivatives as HIV-1 Integrase Inhibitors” (Molecules, 2010).

The target of one test is T1, HIV-1 IN (Human immunodeficiency virus type 1 group M subtype B, UniProt P12497).
T1 construct: pre-incubated with purified recombinant IN (at a final concentration of 200 nM); made in house
Briefly: In vitro IN inhibition assay (3’-processing and strand transfer). The following applies: Mn2+ cofactor (7.5 mM MnCl2). In kind it is biochemical. A digest of the protocol:
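Recombinant HIV-1 IN (200 nM) preincubated with compound 30 min at 30 °C in MnCl2-containing buffer (MgCl2 plus PEG for Mg2+ format), then 1 h with 20 nM 5'-32P-labeled 21-mer duplex. 3'-processing and strand-transfer products resolved on denaturing gels, phosphorimager-quantified; IC50 from log-concentration versus % inhibition.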

Test [1] has as its system Panc-1 pancreatic cancer cell line. Briefly: MTT cytotoxicity assay, Panc-1. The class given is cell-based. The following applies: Homo sapiens, 72 h. An excerpt:
Human melanoma cell line MDA-MB 435, pancreatic cancer cell line Panc-1, and colon cancer cell line HT 29 were purchased from the American Type Cell Culture (Manassas, VA, USA). HCT 116 p53^+/+ and HCT 116 p53^−/^− were kindly provided by Dr. Bert Vogelstein, Johns Hopkins Medical Institutions (Baltimore, MD, USA). HCT 116 p53^+/+, HCT116 p53^−/^−, and HT 29 cells were maintained as monolayer cultures in RPMI 1640 supplemented with 10% fetal bovine serum (FBS; Gemini-Bioproducts, Woodland, CA, USA) and 2 mmol/L L-glutamine at 37 °C in a humidified atmosphere of 5% CO2. Similarly, MDA-MB 435 and Panc-1 cells were maintained in Dulbecco’s modified Eagle’s medium (DMEM) supplemented with 10% fetal bovine serum as described above. […]
Cytotoxicity was assessed by 3-(4,5-dimethylthiazol-2-yl)-2,5-diphenyltetrazolium bromide (MTT) assay as previously described. […]
After 72 h exposure to the test compounds, MTT solution (5 mg/mL; 20 μL) was added to each well and cells were incubated for 4 h at 37 °C. […] The absorbance intensity was measured at 570 nm against appropriate blank controls using a microplate reader (Molecular Devices, Sunnyvale, CA, USA). […]
(Tetrazolium dyes change colour on reduction, which living cells bring about.)

Where [2] appears, read: read-out: Inhibition of IN catalytic activity IC50, 3’-Processing.
Where [3] appears, read: read-out: Inhibition of IN catalytic activity IC50, Strand Transfer.

The structures appear in SMILES notation. Where two headings read alike, the source gives them in different places.

`O=C(Nc1ccc(Cl)cc1)C(=S)NN1C(=O)C(=Cc2ccc([N+](=O)[O-])o2)SC1=S` [Compound 13, N-(4-chlorophenyl)-2-{5-[(5-nitro-2-furyl)methylene]-4-oxo-2-thioxo-1,3-thiazolidin-3-yl}amino-2-thioxoacetamide]: the IC50 on HIV-1 IN (setting [2]) is 68 ± 46 µM; on HIV-1 IN (setting [3]), 41 ± 27 µM. Besides, halving of growth in test [1] (GI50) required 8.6 ± 1.6 µM.
`COc1ccc(NC(=O)C(=S)NN2C(=O)C(=Cc3ccc([N+](=O)[O-])o3)SC2=S)cc1` [Compound 17, N-(4-methoxyphenyl)-2-{5-[(5-nitro-2-furyl)methylene]-4-oxo-2-thioxo-1,3-thiazolidin-3-yl}amino-2-thioxoacetamide]: the IC50 at HIV-1 IN (setting [2]) is 77 ± 10 µM; at HIV-1 IN (setting [3]), 60 µM. The same compound displayed a GI50 in test [1] of 8.2 ± 1.2 µM.

A word on the IC50: it is the point on the concentration scale where inhibition reaches its midpoint. For orientation: GI50 means the concentration at which growth is held to half of that of the control.
